From US7084137B2, “Thiazines and thiazoles as agents for protecting materials” (Bayer Aktiengesellschaft, priority 2001, dated 2006)
Converted amounts (≈) assume the structure as drawn.

What was measured:
Aspergillus niger = test: Minimum inhibitory concentration (MIC) against fungi on malt extract agar; format: cell-based; details: 2 weeks of incubation at 28° C., 60 to 70% relative atmospheric humidity; for MIC: Aspergillus niger, 336 h
Method: (§1) The active compounds according to the invention are in each case added, in concentrations of from 0.1 mg/l to 5000 mg/l, to an agar which is prepared using malt extract. The MIC is determined after 2 weeks of incubation at 28° C. and 60 to 70% relative atmospheric humidity.

Chaetomium globosum = test: as above; format: cell-based; details: 2 weeks of incubation at 28° C., 60 to 70% relative atmospheric humidity; for MIC: Chaetomium globosum, 336 h
Method: as §1

Penicillium brevicaule = test: as above; format: cell-based; details: 2 weeks of incubation at 28° C., 60 to 70% relative atmospheric humidity; for MIC: Penicillium, 336 h
Method: as §1

Bacillus subtilis = test: Minimum inhibitory concentration (MIC) against bacteria on nutrient agar; format: cell-based; details: 3 days of incubation at 28° C., 60 to 70% relative atmospheric humidity; for MIC: Bacillus subtilis, 72 h
Method: The active compounds according to the invention are in each case added, in concentrations of from 0.1 mg/ml to 5000 mg/ml, to a chemically defined nutrient agar. The MIC is determined after 3 days of incubation at 28° C. and 60 to 70% relative atmospheric humidity.

[1] = test system: mould fungi (Alternaria tenius, Aspergillus flavus, Aspergillus niger, Aspergillus ustus, Cindosporum herbarum, Paecilomyces variotii, Penicillium citrium …); test: Test of dispersion coatings for resistance to mould; details: coatings according to recipe A containing 1.5% (based on solids) of compound; even after leaching out and wind tunnel exposure; 2–3 weeks storage
Method: To test dispersion coatings for resistance to mould, the following procedure is adopted:
The paint to be tested is applied to both sides of a suitable base. To obtain results which are close to practice, some of the test specimens are leached out with running water (24 h, 20° C.) before the test for mould resistance; others are treated with a current of warm fresh air (7 days, 40° C.).
The samples prepared in this way are then placed on an agar nutrient medium, and both samples and nutrient medium are contaminated with fungal spores. After 2–3 weeks storage (29±1° C., 80–90% rel. atmospheric humidity), the samples are compared.
The coating is considered to be permanently mould-resistant if the sample remains free from fungus or at most a slightly border infestation can be detected.
For the contamination, fungal spores of the following mould fungi are used, which are known as paint destroyers or are frequently encountered on coatings: • Alternaria tenius • Aspergillus flavus • Aspergillus niger • Aspergillus ustus • Cindosporum herbarum • Paecilomyces variotii • Penicillium citrium • Aureobasidium pullulans • Stachybotrys chartarum
Recipe A: Exterior dispersion paint based on Acroal 290 D (styrene acrylate)

| MIC (Aspergillus niger) | MIC (Chaetomium globosum) | MIC (Penicillium brevicaule) | Compound | Minimum inhibitory concentration, Chaetomium globosum (Chaetomium globosum) | Minimum inhibitory concentration, Penicillium brevicaule (Penicillium brevicaule) | further results |
| --- | --- | --- | --- | --- | --- | --- |
| < 200 µg/mL | < 100 µg/mL | < 100 µg/mL | Cc1cccc(SC2=NCCCS2)c1 [CAS No. 73122-45-9, 2-[(3-methylphenyl)sulfanyl]-5,6-dihydro4H-1,3-thiazine] | – | – | – |
| – | – | – | CCc1ccc(SC2=NCCCS2)cc1 [Example 44] | <100 ppm | <100 ppm | Minimum inhibitory concentration, Aspergillus niger (Aspergillus niger): 100 ppm |
| < 400 µg/mL | < 200 µg/mL | < 200 µg/mL | Clc1ccc(SC2=NCCCS2)cc1 [CAS No. 10554-28-6, 2-[(4-chlorophenyl)sulfanyl]-5,6-dihydro-4H-1,3-thiazine] | – | – | – |
| – | – | – | Oc1cccc(SC2=NCCCS2)c1 [Example 41] | 200 ppm | 100 ppm | – |
| – | – | – | FC(F)(F)c1ccc(SC2=NCCCS2)cc1 [Example 40] | <100 ppm | <100 ppm | Minimum inhibitory concentration, Aspergillus niger (Aspergillus niger): <250 ppm |
| 100 µg/mL (≈ 377 µM) | < 100 µg/mL | < 100 µg/mL | CC(C)(C)c1ccc(SC2=NCCCS2)cc1 [CAS No. 73122-48-2, 2-[(4-tert-butylphenyl)sulfanyl]-5,6-dihydro-4H-1,3-thiazine] | – | – | – |
| 100 µg/mL (≈ 440 µM) | < 100 µg/mL | < 50 µg/mL | Fc1ccc(SC2=NCCCS2)cc1 [CAS No. 73122-42-6, 2-[(4-fluorophenyl)sulfanyl]-5,6-dihydro-4H-1,3-thiazine] | – | – | – |
| < 300 µg/mL | < 200 µg/mL | < 200 µg/mL | Brc1ccc(SC2=NCCCS2)cc1 [CAS No. 73122-41-5, 2-[(4-bromophenyl)sulfanyl]-5,6-dihydro-4H-1,3-thiazine] | – | – | – |
| – | < 200 µg/mL | 200 µg/mL (≈ 870 µM) | Clc1cccc(SC2=NCCS2)c1 [CAS No. 103482-93-5, 2-[3-chlorophenylsulfanyl]-4,5-dihydro-1,3-thiazole] | – | – | – |
| – | – | – | COC(=O)C1CSC(Sc2cccc(Cl)c2)=N1 (stereo not drawn) [Example 18] | 200 ppm | – | – |
| 200 µg/mL (≈ 820 µM) | < 200 µg/mL | < 200 µg/mL | Clc1cccc(SC2=NCCCS2)c1 [CAS No. 73122-33-5, 2-[(3-chlorophenyl)sulfanyl]-5,6-dihydro4H-1,3-thiazine] | – | – | – |
| < 300 µg/mL | < 200 µg/mL | < 200 µg/mL | c1ccc(SC2=NCCCS2)cc1 [CAS No. 73122-32-4, 2-(phenylsulfanyl)-5,6-dihydro-4H-1,3-thiazine] | – | – | MIC (Bacillus subtilis): < 100 µg/mL |
| – | – | – | Fc1cccc(SC2=NCCCS2)c1 [Example 39] | <100 ppm | <100 ppm | Minimum inhibitory concentration, Aspergillus niger (Aspergillus niger): 100 ppm |
| < 250 µg/mL | < 200 µg/mL | < 100 µg/mL | Cc1ccc(SC2=NCCCS2)cc1 [CAS No. 73122-44-8, 2-[(4-methylphenyl)sulfanyl]-5,6-dihydro4H-1,3-thiazine] | – | – | – |
| 200 µg/mL (≈ 792 µM) | < 100 µg/mL | 100 µg/mL (≈ 396 µM) | CN(C)c1ccc(SC2=NCCCS2)cc1 [CAS No. 73122-51-7, 4-(5,6-dihydro-4H-1,3-thiazin-2-ylsulfanyl)-N,N-dimethylaniline] | – | – | – |
| – | – | – | Clc1cc(Cl)cc(SC2=NCCCS2)c1 [CAS No. 73122-37-9, 2-[(3,5-dichlorophenyl)sulfanyl]-5,6-dihydro-4H-1,3-thiazine] | – | – | MIC (Bacillus subtilis): 100 µg/mL (≈ 359 µM) |
| – | – | – | COc1ccc(SC2=NCCCS2)cc1OC [Example 42] | 100 ppm | <200 ppm | Minimum inhibitory concentration, Aspergillus niger (Aspergillus niger): 500 ppm |
| – | – | – | COc1ccccc1SC1=NCCCS1 [Example 36] | 100 ppm | 100 ppm | Minimum inhibitory concentration, Aspergillus niger (Aspergillus niger): 100 ppm |

| MIC (Aspergillus niger) | MIC (Chaetomium globosum) | MIC (Penicillium brevicaule) | Compound | Minimum inhibitory concentration, Chaetomium globosum (Chaetomium globosum) | Minimum inhibitory concentration, Penicillium brevicaule (Penicillium brevicaule) | further results |
| --- | --- | --- | --- | --- | --- | --- |
| – | – | – | Clc1ccc(SC2=NCCCS2)c(Cl)c1 [CAS No. 73122-35-7, 2-[(2,4-dichlorophenyl)sulfanyl]-5,6-dihydro-4H-1,3-thiazine] | – | – | MIC (Bacillus subtilis): < 40 µg/mL |
| 400 µg/mL (≈ 1440 µM) | < 100 µg/mL | < 100 µg/mL | Clc1ccc(SC2=NCCCS2)cc1Cl [CAS No. 73122-34-6, 2-[(3,4-dichlorophenyl)sulfanyl]-5,6-dihydro-4H-1,3-thiazine] | – | – | – |
| – | – | – | COc1cccc(SC2=NCCCS2)c1 [Example 25] | – | – | Mould resistance of coating [1]: mould-resistant |
| – | < 200 µg/mL | 200 µg/mL (≈ 870 µM) | Clc1ccc(SC2=NCCS2)cc1 [CAS No. 103482-92-4, 2-[4-chlorophenylsulfanyl]-4,5-dihydro-1,3-thiazole] | – | – | – |
| – | – | – | c1ccc(-c2cccc(SC3=NCCCS3)c2)cc1 [Example 48] | <100 ppm | 200 ppm | – |
| – | – | – | C=CCSC1=NCCS1 [CAS No. 3571-74-2, 2-[allylsulfanyl]-4,5-dihydro-1,3-thiazole] | – | – | MIC (Bacillus subtilis): 200 µg/mL (≈ 1260 µM) |
| < 200 µg/mL | < 200 µg/mL | < 200 µg/mL | Clc1ccccc1SC1=NCCCS1 [CAS No. 55545-14-7, 2-[(2-chlorophenyl)sulfanyl]-5,6-dihydro-4H-1,3-thiazine] | – | – | – |
| – | – | – | c1ccc(Oc2ccc(SC3=NCCCS3)cc2)cc1 [Example 45] | <100 ppm | 100 ppm | – |
| < 400 µg/mL | < 400 µg/mL | < 300 µg/mL | COc1ccc(SC2=NCCCS2)cc1 [CAS No. 73122-49-3, 2-[(4-methoxyphenyl)sulfanyl]-5,6-dihydro-4H-1,3-thiazine] | – | – | – |
| 200 µg/mL (≈ 895 µM) | < 200 µg/mL | 100 µg/mL (≈ 448 µM) | Cc1ccccc1SC1=NCCCS1 [CAS No. 73122-46-0, 2-[(2-methylphenyl)sulfanyl]-5,6-dihydro-4H-1,3-thiazine] | – | – | – |
| < 150 µg/mL | < 100 µg/mL | < 200 µg/mL | O=[N+]([O-])c1ccc(SC2=NCCCS2)cc1 [CAS No. 73122-52-8, 2-[(4-nitrophenyl)sulfanyl]-5,6-dihydro-4H-1,3-thiazine] | – | – | – |
| – | – | – | COc1ccccc1SC1=NCCCS1 [Example 26] | 200 ppm | 100 ppm | – |
| – | – | – | c1ccc(CSC2=NCCCS2)cc1 [Example 22] | – | – | Minimum inhibitory concentration, Bacillus subtilis (Bacillus subtilis): 100 ppm |
| – | – | – | c1cc(C2CC2)ccc1SC1=NCCCS1 [Example 49] | <100 ppm | <100 ppm | Minimum inhibitory concentration, Aspergillus niger (Aspergillus niger): 100 ppm |
| – | < 200 µg/mL | < 200 µg/mL | O=[N+]([O-])c1ccc(SC2=NCCS2)cc1 [CAS No. 103482-99-1, 2-[4-nitrophenylsulfanyl]-4,5-dihydro-1,3-thiazole] | – | – | – |
| – | – | – | Cc1cccc(C)c1SC1=NCCCS1 [Example 37] | <200 ppm | 400 ppm | – |
| – | – | – | COC(=O)C1CSC(SC(C)C)=N1 (stereo not drawn) [Example 8] | – | – | Minimum inhibitory concentration, Bacillus subtilis (Bacillus subtilis): <200 ppm |
